ChEMBL document CHEMBL1148388, “Restriction of a peptide turn conformation and conformational analysis of guanidino group using arginine-proline fused amino acids: application to mini atrial natriuretic peptide on binding to the receptor” (J Med Chem, 2004)

Experiment: Effective concentration required for production of cGMP in Chinese hamster ovary cells expressing natriuretic peptide receptor A (NPR-A)
Assay type: functional, cell-based

CC[C@H](C)[C@@H]1NC(=O)[C@@H](CCCN=C(N)N)NC(=O)[C@H](CC(=O)O)NC(=O)[C@@H](CCSC)NC(=O)[C@H](CCCN=C(N)N)NC(=O)CNC(=O)CNC(=O)[C@@H](Cc2ccccc2)NC(=O)[C@H](Cc2c[nH]cn2)NC(=O)[C@@H](NC(=O)[C@@H](N)CCSC)CSSC[C@H](C(=O)N[C@@H](Cc2ccc(O)cc2)C(=O)N[C@@H](CCCN=C(N)N)C(N)=O)NC(=O)[C@@H](CO)NC1=O [MiniANP]
EC50: 3.1 nM
